Reference: patent publication US10221163B2 (priority 2015, dated 2019)
Read-outs that look alike come from different tables or passages of the source.

Legend:
[1] = biological target: IMP-1 (Serratia marcescens, UniProt P52699); assay: biochemical; format: biochemical; settings: fluorescence assay, CCF2-FA substrate, 2 pM enzyme, 2 hours at 25° C.; read-out: IMP-1 IC50
Procedure, shortened: (§1)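 IC50 values derive from 4-parameter fits of percent inhibition against inhibitor concentration on semi-log axes. Activity was monitored by fluorescence with the CCF2-FA substrate after a 2-hour, 25° C incubation of compound, enzyme and substrate.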

[2] = biological target: NDM-1 (Klebsiella pneumoniae, UniProt C7C422); assay: biochemical; format: biochemical; settings: fluorescence assay, CCF2-FA substrate, 1 pM enzyme, 2 hours at 25° C.; read-out: NDM-1 IC50
Sequence of NDM-1 (C7C422 whole entry, looked up, species assumed): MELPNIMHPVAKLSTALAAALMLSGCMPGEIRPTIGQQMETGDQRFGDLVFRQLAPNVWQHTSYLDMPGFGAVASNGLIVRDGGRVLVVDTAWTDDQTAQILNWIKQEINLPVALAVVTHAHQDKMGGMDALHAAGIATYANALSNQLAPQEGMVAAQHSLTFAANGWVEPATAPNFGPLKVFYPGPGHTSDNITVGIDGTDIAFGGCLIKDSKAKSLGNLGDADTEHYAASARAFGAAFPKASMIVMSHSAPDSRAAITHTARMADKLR
Procedure, shortened: as §1

[3] = biological target: VIM-1 (Pseudomonas aeruginosa (strain ATCC 15692 / DSM 22644 / CIP 104116 / JCM 14847 / LMG 12228 / 1C / PRS 101 / PAO1), UniProt A0A0F7KYQ8); assay: biochemical; settings: CCF2-FA substrate, 30 pM enzyme, 2 hours at 25° C.
Procedure, shortened: as §1

[4] = system: Escherichia coli expressing NDM-1 (CLB30005, CLB30016); format: cell-based; settings: with imipenem 1 μg/ml; for Escherichia coli MITC95: NDM-1 strain, 95% inhibition of growth; for Escherichia coli expressing NDM-1 (CLB30016) MITC95: 95% inhibition of bacterial growth
Procedure, shortened: (§2)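 Imipenem 1 μg/ml + inhibitor; MBL-expressing clinical strains in 1.1×CAMHB, inoculum from saline suspension diluted 1:100; 35° C, 22–24 h; absorbance read-out.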

[5] = system: Klebsiella pneumoniae expressing VIM-1 (IHMA599644); format: cell-based; settings: for Klebsiella pneumoniae MITC95: VIM-1 strain IHMA599644, with imipenem 1 μg/ml, 95% inhibition of growth; for Klebsiella pneumoniae expressing VIM-1 (IHMA599644) MITC95: with imipenem 1 μg/ml, 95% inhibition of bacterial growth
Procedure, shortened: as §2

[6] = system: Serratia marcescens expressing IMP-1 (CL5741); format: cell-based; settings: for Serratia marcescens MITC95: IMP-1 strain CL5741, with imipenem 1 μg/ml, 95% inhibition of growth; for Serratia marcescens expressing IMP-1 (CL5741) MITC95: with imipenem 1 μg/ml, 95% inhibition of bacterial growth
Procedure, shortened: as §2

[7] = system: Pseudomonas aeruginosa efflux+ (MB9798), IMP-1; format: cell-based; set-up: Concentration of metallo-β-lactamase inhibitor which restores susceptibility of efflux + (MB9798) strain to imipenem: unit not given here; settings: C, D serine β-lactamase inhibitor closely related to relebactam; for P. aeruginosa expressing IMP-1, efflux + (MB9798) MITC95: concentration restoring susceptibility to imipenem at 2 μg/mL in the presence of a class A; for Concentration of metallo-β-lactamase inhibitor which restores susceptibility of efflux + (MB9798) strain to imipenem: imipenem at 2 μg/mL, in the presence of a class A
Procedure, shortened: (§3)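 P. aeruginosa PAO1-derived IMP-1 strains, efflux+ MB9798 and efflux− MB9799, tested by standard microbroth MIC with imipenem and/or ceftazidime fixed, usually at CLSI breakpoint, plus fixed class A/C β-lactamase inhibitor against AmpC. Inhibitor titrated; concentration restoring susceptibility recorded; MB9798/MB9799 fold difference indicates efflux.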

[8] = system: Pseudomonas aeruginosa efflux− (MB9799), IMP-1; format: cell-based; settings: C, D serine β-lactamase inhibitor closely related to relebactam; for P. aeruginosa expressing IMP-1, efflux − (MB9799) MITC95: concentration restoring susceptibility to imipenem at 2 μg/mL in the presence of a class A; for Concentration of metallo-β-lactamase inhibitor which restores susceptibility of efflux − (MB9799) strain to imipenem: imipenem at 2 μg/mL, in the presence of a class A
Procedure, shortened: as §3

[9] = system: Pseudomonas aeruginosa MB9798 vs MB9799
Procedure, shortened: as §3

[10] = fluorescence assay, read-out: VIM-1 IC50
[11] = ratio MITC95 PA_9798/MITC95 PA_9799
[12] = fold difference between efflux+ (MB9798) and efflux− (MB9799) strains, imipenem at 2 μg/mL

Sequence of IMP-1 (P52699 whole entry, looked up, species assumed): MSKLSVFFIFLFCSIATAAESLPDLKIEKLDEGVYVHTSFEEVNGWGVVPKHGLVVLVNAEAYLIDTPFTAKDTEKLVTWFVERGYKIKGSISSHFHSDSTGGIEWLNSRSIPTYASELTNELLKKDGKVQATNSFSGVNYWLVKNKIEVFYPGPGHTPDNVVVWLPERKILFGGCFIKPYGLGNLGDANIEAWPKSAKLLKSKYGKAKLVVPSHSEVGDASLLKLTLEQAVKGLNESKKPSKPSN

NCCCNC(=O)c1cccc(-c2ccc(S(=O)(=O)NCCN)c(S(N)(=O)=O)c2-c2nn[nH]n2)c1 [Example 341, 4′-(N-(2-aminoethyl)sulfamoyl)-N-(3-aminopropyl)-3′-sulfamoyl-2′-(2H-tetrazol-5-yl)-[1,1′-biphenyl]-3-carboxamide]
IC50 [1]: 4.13 nM
IC50 [2]: 1.71 nM
IC50 [3, 10]: 0.474 nM
Escherichia coli MITC95 [4]: 0.7813 µM
Klebsiella pneumoniae MITC95 [5]: 3.125 µM
Serratia marcescens MITC95 [6]: 1.563 µM
P. aeruginosa expressing IMP-1, efflux + (MB9798) MITC95 [7]: 1.563 µM
P. aeruginosa expressing IMP-1, efflux − (MB9799) MITC95 [8]: 0.7813 µM
Efflux ratio [9, 11]: 2.00

NCCn1nnc2c(-c3ccc(S(=O)(=O)N[C@@H]4CCNC4)c(S(N)(=O)=O)c3-c3nn[nH]n3)cccc21 [Example 289]
IC50 [1]: 1.22 nM
IC50 [2]: 0.249 nM
IC50 [3, 10]: 0.104 nM
Escherichia coli MITC95 [4]: 0.7813 µM
Klebsiella pneumoniae MITC95 [5]: 1.563 µM
Serratia marcescens MITC95 [6]: 1.563 µM
P. aeruginosa expressing IMP-1, efflux + (MB9798) MITC95 [7]: 1.563 µM
P. aeruginosa expressing IMP-1, efflux − (MB9799) MITC95 [8]: 0.7813 µM
Efflux ratio [9, 11]: 2.00

Nc1nc2c(-c3ccc(S(=O)(=O)N4CC(F)(F)C4)c(S(N)(=O)=O)c3-c3nnn[nH]3)cccc2s1 [Example 42, 3-(2-amino-1,3-benzothiazol-4-yl)-6-[(3,3-difluoroazetidin-1-yl)sulfonyl]-2-(1H-tetrazol-5-yl)benzenesulfonamide]
IC50 [1]: 0.7 nM
IC50 [2]: 0.697 nM
IC50 ([3]; VIM-1 IC50, fluorescence assay): 0.669 nM
Escherichia coli expressing NDM-1 (CLB30016) MITC95 [4]: 12.5 µM
Klebsiella pneumoniae expressing VIM-1 (IHMA599644) MITC95 [5]: 12.5 µM
Serratia marcescens expressing IMP-1 (CL5741) MITC95 [6]: 3.125 µM
P. aeruginosa expressing IMP-1, efflux + (MB9798) MITC95 [7]: 25 µM
P. aeruginosa expressing IMP-1, efflux − (MB9799) MITC95 [8]: 1.563 µM
Efflux ratio [9, 11]: 15.99

Nc1nc2c(-c3ccc(S(=O)(=O)NC[C@@H](N)CO)c(S(N)(=O)=O)c3-c3nn[nH]n3)cccc2[nH]1 [Example 190, 4-(2-amino-1H-benzo[d]imidazol-4-yl)-N1-((R)-2-amino-3-hydroxypropyl)-3-(2H-tetrazol-5-yl)benzene-1,2-disulfonamide]
IC50 [1]: 0.624 nM
IC50 [2]: 0.059 nM
IC50 [3, 10]: 0.281 nM
Escherichia coli expressing NDM-1 (CLB30016) MITC95 [4]: 0.3906 µM
Klebsiella pneumoniae expressing VIM-1 (IHMA599644) MITC95 [5]: 0.7813 µM
Serratia marcescens expressing IMP-1 (CL5741) MITC95 [6]: 0.3906 µM
P. aeruginosa expressing IMP-1, efflux + (MB9798) MITC95 [7]: 0.3906 µM
P. aeruginosa expressing IMP-1, efflux − (MB9799) MITC95 [8]: 0.7813 µM
Efflux ratio [9, 11]: 0.50

CC(C)(N)CNS(=O)(=O)c1ccc(-c2cccc3sc(N)nc23)c(-c2nnn[nH]2)c1S(N)(=O)=O [Example 87, N^1-(2-amino-2-methylpropyl)-4-(2-aminobenzo[d]thiazol-4-yl)-3-(1H-tetrazol-5-yl)benzene-1,2-disulfonamide]
IC50 [1]: 0.261 nM
IC50 [2]: 0.0367 nM
IC50 [3, 10]: 0.197 nM
Escherichia coli expressing NDM-1 (CLB30016) MITC95 [4]: 3.125 µM
Klebsiella pneumoniae expressing VIM-1 (IHMA599644) MITC95 [5]: 6.25 µM
Serratia marcescens expressing IMP-1 (CL5741) MITC95 [6]: 3.125 µM
P. aeruginosa expressing IMP-1, efflux + (MB9798) MITC95 [7]: 0.7813 µM
P. aeruginosa expressing IMP-1, efflux − (MB9799) MITC95 [8]: 1.563 µM
Efflux ratio [9, 11]: 0.50

Nc1nc2c(-c3ccc(S(=O)(=O)NCC4CCN4)c(S(N)(=O)=O)c3-c3nn[nH]n3)cccc2[nH]1 (stereo not drawn) [Example 207, 4-(2-amino-1H-benzo[d]imidazol-4-yl)-N1-(azetidin-2-ylmethyl)-3-(2H-tetrazol-5-yl)benzene-1,2-disulfonamide]
IC50 [1]: 0.999 nM
IC50 [2]: 0.274 nM
IC50 ([3]; VIM-1 IC50, fluorescence assay): 0.69 nM
Escherichia coli expressing NDM-1 (CLB30016) MITC95 [4]: 3.125 µM
Klebsiella pneumoniae expressing VIM-1 (IHMA599644) MITC95 [5]: 3.125 µM
Serratia marcescens expressing IMP-1 (CL5741) MITC95 [6]: 1.563 µM
P. aeruginosa expressing IMP-1, efflux + (MB9798) MITC95 [7]: 3.125 µM
P. aeruginosa expressing IMP-1, efflux − (MB9799) MITC95 [8]: 1.563 µM
Efflux ratio [9, 11]: 2.00

Nc1nc(-c2cccc(-c3ccc(S(=O)(=O)N[C@@H]4CCNC4)c(S(N)(=O)=O)c3-c3nn[nH]n3)c2)c[nH]1 [Example 428]
IC50 [1]: 0.407 nM
IC50 [2]: 0.0473 nM
IC50 ([3]; VIM-1 IC50, fluorescence assay): 0.133 nM
Escherichia coli MITC95 [4]: 0.3906 µM
Klebsiella pneumoniae MITC95 [5]: 1.563 µM
Serratia marcescens MITC95 [6]: 0.7813 µM
Concentration of metallo-β-lactamase inhibitor which restores susceptibility of efflux + (MB9798) strain to imipenem [7]: 0.7813
Concentration of metallo-β-lactamase inhibitor which restores susceptibility of efflux − (MB9799) strain to imipenem [8]: 0.7813
Efflux ratio [9, 12]: 1.00

NCc1nc2c(-c3ccc(S(=O)(=O)N[C@H](CN)CO)c(S(N)(=O)=O)c3-c3nn[nH]n3)cccc2s1 [Example 363, (R)—N1-(1-amino-3-hydroxypropan-2-yl)-4-(2-(aminomethyl)benzo[d]thiazol-4-yl)-3-(2H-tetrazol-5-yl)benzene-1,2-disulfonamide]
IC50 [1]: 3.67 nM
IC50 [2]: 0.649 nM
IC50 ([3]; VIM-1 IC50, fluorescence assay): 0.591 nM
Escherichia coli MITC95 [4]: 3.125 µM
Klebsiella pneumoniae MITC95 [5]: 3.125 µM
Serratia marcescens MITC95 [6]: 1.563 µM
P. aeruginosa expressing IMP-1, efflux + (MB9798) MITC95 [7]: 3.125 µM
P. aeruginosa expressing IMP-1, efflux − (MB9799) MITC95 [8]: 0.7813 µM
Efflux ratio [9, 11]: 4.00

Nc1nc2c(-c3ccc(S(=O)(=O)N4CCNCC4)c(S(N)(=O)=O)c3-c3nn[nH]n3)cccc2s1 [Example 142, 3-(2-Aminobenzo[d]thiazol-4-yl)-6-(piperazin-1-ylsulfonyl)-2-(2H-tetrazol-5-yl)benzenesulfonamide]
IC50 [1]: 0.636 nM
IC50 [2]: 0.185 nM
IC50 [3, 10]: 0.558 nM
Escherichia coli expressing NDM-1 (CLB30016) MITC95 [4]: 3.906 µM
Klebsiella pneumoniae expressing VIM-1 (IHMA599644) MITC95 [5]: 3.125 µM
Serratia marcescens expressing IMP-1 (CL5741) MITC95 [6]: 1.563 µM
P. aeruginosa expressing IMP-1, efflux + (MB9798) MITC95 [7]: 1.563 µM
P. aeruginosa expressing IMP-1, efflux − (MB9799) MITC95 [8]: 1.172 µM
Efflux ratio [9, 11]: 1.33

NCCNS(=O)(=O)c1ccc(-c2cccc3[nH]c(C(F)(F)CN)nc23)c(-c2nn[nH]n2)c1S(N)(=O)=O [Example 445, 4-(2-(2-amino-1,1-difluoroethyl)-1H-benzo[d]imidazol-4-yl)-N1-(2-aminoethyl)-3-(2H-tetrazol-5-yl)benzene-1,2-disulfonamide]
IC50 [1]: 0.37 nM
IC50 [2]: 0.0446 nM
IC50 [3, 10]: 0.114 nM
Escherichia coli MITC95 [4]: 3.125 µM
Klebsiella pneumoniae MITC95 [5]: 3.125 µM
Serratia marcescens MITC95 [6]: 3.125 µM
Concentration of metallo-β-lactamase inhibitor which restores susceptibility of efflux + (MB9798) strain to imipenem [7]: 1.563
Concentration of metallo-β-lactamase inhibitor which restores susceptibility of efflux − (MB9799) strain to imipenem [8]: 1.563
Efflux ratio [9, 12]: 1.00
